Laboratory results from PMC2363502.
Entries after “also recorded” stand apart in the source; their conditions may differ. Read-outs that look alike come from different tables or passages of the source.

Columns and labels:
[1] = system: variety of different tumour cell lines; set-up: method as in H Mett, unpublished data; details: including multi-drug-resistant and highly metastatic variants; ref H Mett, unpublished data; cited from earlier work
[2] = system: solid tumours; test: phase I clinical efficacy (UICC tumour response, markers, FDG-PET); assay type: in vivo, human
Description: Preclinical testing confirmed promising antiproliferative activity. […] Physical examination was performed weekly. […] N-Acetyl-SPERMINE SSAT SSAT […] Analysis was descriptive only. […] Patient characteristics are described in Table 1. […] Three patients completed the full six cycles of treatment. Of these, two received the combination 5FU/SAM486A from cycle 3 onwards. Five patients recorded a best response of stable disease. Of these, three received the combination 5FU/SAM486A from cycle 3 onwards (see below).

[3] = set-up: method as in unpublished; details: rat, basis of starting dose; ref unpublished; cited from earlier work
[4] = system: S-adenosylmethionine decarboxylase (SAMDC); details: cited from earlier work

## N=C(N)c1cccc2c1CCC2=NN=C(N)N [SAM486A]
[1]
  growth inhibitory IC50: micromolar range
[2]; 39 patients
  objective tumour response: No objective remission; also recorded: No complete or partial responses
  patients with stable disease as best response: five
[2]; six evaluable patients
  tumour markers (CEA, CA 15.3) post-baseline: No trends towards decreases
[2]; two patients, 400 mg m-2 cycle-1
  FDG-PET result after first 5-day infusion: stable disease at best
[3]
  no-adverse-effect level: 0.06 mg/kg/day
[4]; SAMDC inhibition in vitro, ref Regenass et al, 1994
  fold more active than MGBG: approximately 200 fold
[4]; as quoted in results and discussion, read-out: IC50 required in in vitro experiments for inhibition of SAMDC
  IC50: 4.7 nM
[4]; as quoted in results
  IC50 for inhibition of SAMDC as plasma concentration: 1.1 ng/mL
[4]; in vitro, ref Regenass et al, 1994, read-out: IC50 for SAMDC
  IC50: 4.7 nM
